The subject of test [1] is Plasmodium falciparum. The test is described as follows: ST_JUDE: Plasmodium falciparum 3D7 EC50 (uM) as measured by SYBR green dye. Type of test: functional, organism-based.
The subject of test [2] is Plasmodium falciparum. The test is described as follows: ST_JUDE: Plasmodium falciparum K1 EC50 (uM) as measured by SYBR green dye. Type of test: functional, organism-based.

One may read the EC50 as the concentration at which the effect is half-maximal. High values mean a need for much substance, low ones an effect from little substance.

With `Cc1ccc(NC(=O)c2csc3c2CCCCC3)c(C)c1`, the EC50 in test [1] is 1.77 µM; in test [2] it was above 15 µM.
Consider `CCCC(=O)NC(c1ccc(N(CC)CC)cc1)c1cc(Cl)c2cccnc2c1O` (stereo not drawn), for which the EC50 in test [1] is 0.844 µM; in test [2], 1.14 µM.
As to `Cc1cc(N2CCN(C)CC2)nc2ccc(NC(=S)NCCN3CCN(c4ccccc4F)CC3)cc12`, the values for the EC50 in test [1] and in test [2] were 2 µM and 6.21 µM, respectively.
In the same order, the values of `CN1C(=O)/C(=C\c2cccc(Cl)c2)Sc2ccc(C(=O)NC3CCN(Cc4ccccc4)CC3)cc21` are 0.657 µM and above 15 µM.
For the compound `CCOCc1cc(CN2CCN(CCC(C)C)C(CCO)C2)ccc1OC` (stereo not drawn), the EC50 in test [1] and in test [2] was above 15 µM throughout.
In the case of `CCN1CCN(CCCNC(=O)c2cc3cc4ccc(Cl)cc4nc3o2)CC1`, the EC50 is 4.54 µM in test [1] and above 15 µM in test [2].
On the same counts, the results for `CCN(CC)c1cc(C)c2cc(NC(=O)c3cccc(OC)c3)ccc2n1` are 4.77 µM and above 15 µM.
In the case of `CCCC(=O)NC(c1ccccc1OC)c1ccc2cccnc2c1O` (stereo not drawn), the EC50 was 2.2 µM in test [1] and 3.43 µM in test [2].
`O=C1C(Nc2cccc(Br)c2)=C(N2CCCCC2)C(=O)c2ccccc21`: the EC50 was determined as 0.456 µM in test [1] and 1.15 µM in test [2].
In the case of `Cn1c(-c2ccc([N+](=O)[O-])cc2)[n+](C)c2ccccc21`, the results for the 50% effective concentration (EC50) in test [1] and in test [2] were above 15 µM and 2.67 µM, respectively.
Turning to `CCC(=O)NC(c1ccc(N(C)C)cc1)c1ccc2cccnc2c1O` (stereo not drawn), the EC50 in test [1] stood at 4.07 µM; in test [2], 4.44 µM.
As for `CCOC(=O)C1=C(C)N=c2s/c(=C\c3cc(Cl)ccc3O)c(=O)n2C1c1ccccc1` (stereo not drawn), the EC50 in test [1] and in test [2] was above 15 µM each time.
Regarding `CCC(C)c1ccc(O)c(NC(=O)c2cncc(Br)c2)c1` (stereo not drawn), the concentration giving a half-maximal response (EC50) is 2.15 µM in test [1] and 1.59 µM in test [2].
On to `CCc1ccc(Oc2c(C(F)(F)F)oc3c(CN4CCOCC4)c(O)ccc3c2=O)cc1`, for which the EC50 in test [1] and in test [2] was above 15 µM each time.
`COc1ccc(OC)c2sc(N(Cc3cccnc3)C(=O)c3cccc(F)c3)nc12`: the EC50 turned out to be 4.1 µM in test [1] and 4.97 µM in test [2].
For `Cc1ccc(O)c(-n2cc3c(c2-c2ccc(C(C)(C)C)cc2)c(=O)n(C)c(=O)n3C)c1`, the EC50 in test [1] came to 3.57 µM; in test [2] it was 2.41 µM.
As for `CC(C)N1CCN(Cc2ccc(C#CC(C)(C)O)cc2)CC1CCO` (stereo not drawn), the half-maximal effective concentration (EC50) in test [1] and in test [2] was above 15 µM in each case.
In the case of `CCC1CCCCN1CCCNC(=O)c1ccc2c(c1)sc1nc(-c3ccc(F)cc3)cn12` (stereo not drawn), the results for the EC50 in test [1] and in test [2] were 0.463 µM and 1.3 µM, respectively.
On the same counts, the results for `CCO/C(O)=C1\C(C)=NC2=C(C(=O)CC(c3ccc(Cl)cc3)C2)C1c1cc(F)ccc1F` (stereo not drawn) are above 15 µM and above 15 µM.
On the same counts, the results for `CCN(CC)S(=O)(=O)c1ccc(C(=O)NNc2nc3c(OC)ccc(OC)c3s2)cc1` are above 15 µM and 3.93 µM.
Regarding `Cc1cccc(NC(c2ccc(Br)cc2)c2ccc3cccnc3c2O)n1` (stereo not drawn), the EC50 in test [1] was 1.94 µM; in test [2], 3.54 µM.
`COC(=O)C1=C(C)N=c2s/c(=C\c3ccccc3OC(C)=O)c(=O)n2C1c1ccccc1Cl` (stereo not drawn): the concentration for a half-maximal effect (EC50) in test [1] and in test [2] was above 15 µM in each case.
As for `CCN(CC)CCCC(C)Nc1nc(C)nc2cc(Cl)ccc12` (stereo not drawn), the EC50 in test [1] was 6.6 µM; in test [2] it was above 15 µM.
For `COc1ccccc1-c1nnc(NC(=O)c2cccc(SC)c2)o1`, the EC50 in test [1] and in test [2] was above 15 µM in each case.
As to `CC(=O)N(C1=C(N(C)C)C(=O)c2ccccc2C1=O)c1cccc(I)c1`, the values for the concentration for a half-maximal effect (EC50) in test [1] and in test [2] were 0.0566 µM and 0.0862 µM, respectively.
As for `CCC(C)NC(=O)N1CCC(n2nccc2NC(=O)CCCc2ccccc2)CC1` (stereo not drawn), the EC50 in test [1] and in test [2] was above 15 µM throughout.
As to `CCOC(=O)C1=C(Nc2ccc(Cl)cc2)S/C(=C\c2cccc(OC)c2O)C1=O`, the EC50 was above 15 µM in test [1] and 4 µM in test [2].
Regarding `Oc1ccc(-c2nc(-c3ccc4oc5ccc(-c6[nH]c(-c7ccc(O)cc7)nc6-c6ccccc6)cc5c4c3)c(-c3ccccc3)[nH]2)cc1`, the EC50 in test [1] worked out at 8.11 µM; in test [2], 2.99 µM.
`O=C(CN1C2=NCCN2c2ccccc21)c1ccc(Cl)cc1Cl`: the EC50 is 3.28 µM in test [1] and 3.65 µM in test [2].
Take `C=CCNC(=S)N1CCc2cc(OC)c(OC)cc2C1c1ccccc1` (stereo not drawn): the EC50 was found to be 3.85 µM in test [1] and 3.73 µM in test [2].
Turning to `CCOC(=O)c1c(NC(=O)c2ccc(Cl)cc2Cl)sc(C)c1C`, the EC50 in test [1] and in test [2] was above 15 µM in each case.
For `Cc1ccc(Nc2cc(C)nc(Nc3ccc(NS(=O)(=O)c4ccc(F)cc4)cc3)n2)cc1`, the EC50 came to 0.746 µM in test [1] and 7.04 µM in test [2].
As for `Cc1ccc(Cn2c(=N)n(CC(=O)c3ccc([N+](=O)[O-])cc3)c3ccccc32)cc1`, the EC50 in test [1] turned out to be 7.64 µM; in test [2] it was 10.4 µM.
On the same counts, the results for `CCCCCCCn1c(=N)n(CC(O)COc2ccccc2)c2ccccc21` (stereo not drawn) are 1.59 µM and 1.43 µM.
With `CN(C)CCn1c(=N)n(CC(O)c2ccc(Cl)c(Cl)c2)c2ccccc21` (stereo not drawn), the EC50 was 0.638 µM in test [1] and 3.01 µM in test [2].
For the compound `Cc1cc(C)c2sc(N(Cc3cccnc3)C(=O)c3ccc(C#N)cc3)nc2c1`, the EC50 came to 5.77 µM in test [1] and 3.94 µM in test [2].
On to `O=C(c1cccc(Cl)c1)N1CCN(c2ccc([N+](=O)[O-])c(NC3CC3)c2)CC1`, for which the values for the EC50 in test [1] and in test [2] were 3.76 µM and 3.68 µM, respectively.
`Oc1ccc(C(c2ccc(O)cc2)C(Cl)(Cl)Cl)cc1`: the figures for the EC50 in test [1] and in test [2] were 3.95 µM and 3.6 µM, respectively.
Turning to `COc1cc(/C=C/C(=O)Nc2cccc(Br)c2)cc(OC)c1OC`, the EC50 in test [1] and in test [2] was above 15 µM in each case.
In the case of `Cc1cc(N2CCCC2)nc(Nc2ccc(NS(=O)(=O)c3ccc(Cl)cc3)cc2)n1`, the EC50 is 2.12 µM in test [1] and above 15 µM in test [2].
On the same counts, the results for `S=C(N/N=C(/c1ccccc1)c1ccccn1)Nc1ccccc1` are 0.317 µM and 0.48 µM.
As for `CC1(C)N=C(N)N=C(N)N1c1ccc(F)cc1`, the EC50 in test [1] is 0.095 µM; in test [2], 2.31 µM.
As for `Cc1ccc(NC(=O)C2c3ccccc3C(=O)N(C3CCCC3)C2c2cccs2)cc1` (stereo not drawn), the values for the EC50 in test [1] and in test [2] were above 15 µM and 1.44 µM, respectively.
Consider `O=C1CC(c2ccc(Cl)cc2Cl)C2=C(CC(c3ccc(F)cc3)CC2=O)N1` (stereo not drawn), for which the EC50 in test [1] and in test [2] was above 15 µM throughout.
For `C=CCN1C(=O)c2[nH]nc(-c3c(C)cc(C)cc3O)c2C1c1cccc(OCC)c1` (stereo not drawn), the EC50 in test [1] amounted to 3.52 µM; in test [2], 2.83 µM.
On to `CC(=O)Nc1ccc(S(=O)(=O)Nc2ccc(Nc3nc(C)cc(N4CCCC4)n3)cc2)cc1`, for which the EC50 in test [1] was 0.57 µM; in test [2] it was 3.44 µM.
With `CCc1ccc(C2c3c(-c4ccccc4O)n[nH]c3C(=O)N2CCCOC(C)C)cc1` (stereo not drawn), the EC50 in test [1] and in test [2] was above 15 µM each time.
Consider `CCOC(=O)c1ccc2nc(C)cc(Nc3ccc(N(C)C)cc3)c2c1`, for which the figures for the EC50 in test [1] and in test [2] were 2.85 µM and 3.81 µM, respectively.
Turning to `C=CC[n+]1c(/C=C2\C=CC=CN2CC)ccc2cc(C)ccc21`, the results for the 50% effective concentration (EC50) in test [1] and in test [2] were 2.56 µM and 2.53 µM, respectively.
Regarding `Cn1c2c(c(=N)c3c1CCC3)CCCC2`, the EC50 in test [1] was determined as 2.39 µM; in test [2] it was 5.79 µM.
Consider `COc1ccc(Nc2cc(C)nc(Nc3ccc(NS(=O)(=O)c4cccc(Cl)c4)cc3)n2)cc1`, for which the half-maximal effective concentration (EC50) is 2.39 µM in test [1] and above 15 µM in test [2].
As for `C=CCN(CC=C)CCN1CCN(C(=O)Nc2cc(C(F)(F)F)cc(C(F)(F)F)c2)CC1`, the EC50 in test [1] amounted to 0.711 µM; in test [2], 0.535 µM.
`CCOc1cc(Br)c(C2C(C#N)=C(N)Oc3cc(O)ccc32)cc1OCC` (stereo not drawn): the values for the EC50 in test [1] and in test [2] were 3.8 µM and 1.52 µM, respectively.
On to `CC1Cc2nc(SCC(=O)Nc3cccc(F)c3)n(C)c(=O)c2S1` (stereo not drawn), for which the 50% effective concentration (EC50) in test [1] is 1.62 µM; in test [2], 2.07 µM.
Turning to `O=C(Nc1cccc(OC(F)(F)F)c1)c1ccc(Br)o1`, the EC50 in test [1] and in test [2] was above 15 µM in each case.
As to `Cc1cccnc1Nc1nc(-c2ccccn2)cs1`, the EC50 in test [1] stood at 1.84 µM; in test [2], 1.32 µM.
On the same counts, the results for `Cc1ccc(-c2cc(-c3cc(Cl)ccc3O)[nH]n2)cc1` are 5.01 µM and 2.92 µM.
Turning to `O=[N+]([O-])c1ccc(O)c(/N=C/C=C(\O)c2ccc(Cl)c(Cl)c2)c1`, the EC50 in test [1] was above 15 µM; in test [2] it was 1.65 µM.
For `Cn1c(=O)oc2cc(S(=O)(=O)N3CCCC(C(=O)N4CCN(C(c5ccccc5)c5ccccc5)CC4)C3)ccc21` (stereo not drawn), the EC50 in test [1] is 3.56 µM; in test [2], 1.61 µM.
Turning to `O=C(O)c1ccc(S(=O)(=O)NC2=C/C(=N\S(=O)(=O)c3ccccc3)C(=O)c3ccccc32)cc1`, the EC50 in test [1] and in test [2] was above 15 µM in each case.
On to `COc1ccc(OC)c2sc(N(Cc3cccnc3)C(=O)c3cccc(Cl)c3)nc12`, for which the EC50 in test [1] was above 15 µM; in test [2], 1.65 µM.
On the same counts, the results for `CCOc1ccc(N(C(C)=O)C2=C(N3CCCCC3)C(=O)c3ccccc3C2=O)cc1` are 0.542 µM and above 15 µM.
Turning to `COc1ccc(-c2cc(=O)n(-c3ccc([N+](=O)[O-])cc3)[nH]2)cc1`, the EC50 in test [1] and in test [2] was above 15 µM throughout.
With `CCOC(=O)c1oc2c(c1C)-c1nn(Cc3ccc(C)cc3)cc1CC2`, the values for the EC50 in test [1] and in test [2] were 3.14 µM and 2.16 µM, respectively.
As to `Cc1cn2c(nc3c2c(=O)n(Cc2ccc(Br)cc2)c(=O)n3C)o1`, the EC50 in test [1] and in test [2] was above 15 µM each time.
`CCCC(=O)n1nc(-c2ccc(Cl)cc2)nc1NCc1ccc(OC)cc1`: the EC50 in test [1] and in test [2] was above 15 µM in each case.
Consider `Cc1ccc(C2Nn3c(nnc3-c3ccccc3)SC2C(=O)N2CCCCCC2)cc1` (stereo not drawn), for which the 50% effective concentration (EC50) in test [1] stood at 2.94 µM; in test [2], 3.91 µM.
On the same counts, the results for `COC(=O)C1=C(C(=O)OC)C2(OC1c1cccc(F)c1)C(=O)c1ccccc1C2=O` (stereo not drawn) are 3.97 µM and above 15 µM.
With `Cc1cc(N2CCN(C)CC2)nc2ccc(NC(=O)/C=C/c3ccccc3OC(C)C)cc12`, the EC50 turned out to be 3.36 µM in test [1] and 5.57 µM in test [2].

Values taken from ChEMBL document CHEMBL1154198, “Chemical genetics of Plasmodium falciparum” (Nature, 2010).
